Laboratory results taken from patent US6586425B2, “Cytoskeletal active agents for glaucoma therapy” (Wisconsin Alumni Research Foundation, priority 1996, dated 2003).
“And” between values parts separate entries of the source, which are not always exact repeats. Equal values may be shown once.

Assays:
living monkey eyes [1] = assay: Aqueous humor flow and corneal endothelial transfer coefficient ka by fluorophotometry; details: 42 μg LAT-A topical
living monkey eyes [2] = assay: Blood-aqueous barrier permeability to systemic fluorescein; assay type: in vivo, cynomolgus monkeys (Macaca fascicularis); details: 42 μg LAT-A topical
Description: Topical LAT-A (42 μg) was given to one eye and vehicle to the opposite eye as described above, 1 hr prior to intravenous injection of fluorescein Na in the saphenous vein (10 mg/kg in 500-600 μl) followed by a 4 ml saline flush. The concentration of fluorescein ([fluorescein]) in the cornea and AC was determined by fluorophotometry 15, 30, 45, 60, 90, 120, 180 and 240 min after fluorescein injection.

living monkey eyes [3] = assay: Aqueous humor protein concentration (Lowry method); assay type: in vivo, cynomolgus monkeys (Macaca fascicularis); details: 42 μg LAT-A topical
Source text: Approximately 5.5 hr after LAT-A and vehicle (25% DMSO) administration, or approximately 6.5 hr after LAT-B and vehicle (25% DMSO) administration, when AHF measurements had been completed, a sample of AH was obtained under a Zeiss surgical microscope, using a 30-gauge needle connected via polyethylene tubing to a tuberculin syringe. The needle was threaded through the corneal stroma for 6 mm, then directed into the AC so that the wound was self-sealing. AH entered the tubing by very gentle suction with the tuberculin syringe; only occasionally was brief mild pressure on the cornea with a needle holder required to promote the initial flow of AH into the tubing via the very thin needle. Approximately 60-80 μl of AH was removed, leaving a shallow but not completely flattened AC. In separate protocols with different monkeys, AH was similarly obtained 2 hr after 42 μg LAT-A or 1 hr after 4 μg LAT-B to one eye and vehicle to the opposite eye. The AH samples were stored at −20° C. for up to 24 hr. The protein concentration in each sample was assayed by the Lowry method, as known in the art (See e.g., Lowry et al., J. Biol. Chem., 193:265-275[1951]; and Peterson et al., Anal. Biochem., 100:201-220[1979]), in duplicate, and the result averaged. Duplicate sets of protein standards containing 0, 1, 3, 5, 10, 20, 40, or 60 μg bovine serum albumin (BSA) were assayed by the same method and results averaged and graphed to give a linear equation that was used to estimate the protein content in the AH samples. The optical density of each sample was measured at 660 nm using a Spectronic 20 Spectrophotometer (Bausch and Lomb).

living monkey eye = details: in vivo
[4] = system: ciliary muscle-disinserted monkey eyes; assay: Outflow facility in ciliary muscle-disinserted eyes; assay type: in vivo, cynomolgus and rhesus monkeys

For `C/C1=C/C(=O)O[C@@H]2C[C@@H](CC[C@H](C)/C=C\C=C\CC1)O[C@@](O)([C@@H]1CSC(=O)N1)C2` [LAT-A], the “relative difference in ka between first and second 3-hr intervals” value (living monkey eyes [1]) was 27±12%, the increase in ka (living monkey eyes [1]; first 3 hr) was 106±16% and the “increase in apparent AHF relative to vehicle, adjusted for baseline” value (living monkey eyes [1]; first 3 hr, n=8) was 87% and 87±13%. The increase in ka (living monkey eyes [1]; overall, n=8) was 94±9%, the “AHF, drug- vs vehicle-treated eyes” value (living monkey eyes [1]; second 3 hr) was “no significant differences” and the increase in ka (living monkey eyes [1]; second 3 hr) was 68±10%. The “AHF Rx, LAT-A eye” value (living monkey eyes [1]; hour 0.5 to 3.0, n=8) was 3.48 microliters per minutes, the “AHF Rx, LAT-A/Vehicle” value (living monkey eyes [1]; hour 0.5 to 3.0, n=8) was 1.94 and the “AHF Rx/BL, LAT-A eye” value (living monkey eyes [1]; hour 0.5 to 3.0, n=8) was 1.82. For the same compound, the “AHF Rx/BL, LAT-A/Vehicle” value (living monkey eyes [1]; hour 0.5 to 3.0, n=8) was 1.87, the “ka Rx, LAT-A eye” value (living monkey eyes [1]; hour 0.5 to 3.0, n=8) was 0.00996 min⁻¹ and the “ka Rx, LAT-A/Vehicle” value (living monkey eyes [1]; hour 0.5 to 3.0, n=8) was 2.15. The “ka Rx/BL, LAT-A eye” value (living monkey eyes [1]; hour 0.5 to 3.0, n=8) was 1.84, the “ka Rx/BL, LAT-A/Vehicle” value (living monkey eyes [1]; hour 0.5 to 3.0, n=8) was 2.06 and the “AHF Rx, LAT-A eye” value (living monkey eyes [1]; hour 0.5 to 6.0, n=8) was 2.65 microliters per minutes. The “AHF Rx, LAT-A/Vehicle” value (living monkey eyes [1]; hour 0.5 to 6.0, n=8) was 1.51, the “AHF Rx/BL, LAT-A eye” value (living monkey eyes [1]; hour 0.5 to 6.0, n=8) was 1.38 and the “AHF Rx/BL, LAT-A/Vehicle” value (living monkey eyes [1]; hour 0.5 to 6.0, n=8) was 1.51. For the same compound, the “ka Rx, LAT-A eye” value (living monkey eyes [1]; hour 0.5 to 6.0, n=8) was 0.00961 min⁻¹, the “ka Rx, LAT-A/Vehicle” value (living monkey eyes [1]; hour 0.5 to 6.0, n=8) was 1.98 and the “ka Rx/BL, LAT-A eye” value (living monkey eyes [1]; hour 0.5 to 6.0, n=8) was 1.72. For the same compound, the “ka Rx/BL, LAT-A/Vehicle” value (living monkey eyes [1]; hour 0.5 to 6.0, n=8) was 1.94, the “AHF Rx, LAT-A eye” value (living monkey eyes [1]; hour 3.5 to 6.0, n=8) was 1.87 microliters per minutes and the “AHF Rx, LAT-A/Vehicle” value (living monkey eyes [1]; hour 3.5 to 6.0, n=8) was 1.00. The “AHF Rx/BL, LAT-A eye” value (living monkey eyes [1]; hour 3.5 to 6.0, n=8) was 1.00, the “AHF Rx/BL, LAT-A/Vehicle” value (living monkey eyes [1]; hour 3.5 to 6.0, n=8) was 1.01 and the “ka Rx, LAT-A eye” value (living monkey eyes [1]; hour 3.5 to 6.0, n=8) was 0.00925 min⁻¹. The “ka Rx, LAT-A/Vehicle” value (living monkey eyes [1]; hour 3.5 to 6.0, n=8) was 1.69, the “ka Rx/BL, LAT-A eye” value (living monkey eyes [1]; hour 3.5 to 6.0, n=8) was 1.59 and the “ka Rx/BL, LAT-A/Vehicle” value (living monkey eyes [1]; hour 3.5 to 6.0, n=8) was 1.68. The “[fluorescein]cornea, LAT-A-treated vs vehicle-treated eyes” value (living monkey eyes [2]; 15 min after i.v. fluorescein (1.25 hr after LAT-A)) was about 10 times, the “[fluorescein]cornea, LAT-A-treated vs vehicle-treated eyes” value (living monkey eyes [2]; 240 min after i.v. fluorescein) was about 1.5 times and the “[Fluorescein]AC higher in LAT-A eyes than in vehicle-treated eyes” value (living monkey eyes [2]; 240 min after i.v. fluorescein, n=4) was 24±3%. The “[Protein]AC vs vehicle-treated eyes” value (living monkey eyes [3]; 5.5 hr) was “no difference in protein concentration”, the “[Protein]AC higher than in vehicle-treated eyes” value (living monkey eyes [3]; two hr, n=7) was 25±9% and the “BL2/BL1, Rx eye” value (living monkey eye) was 1.24 ± 0.19. For the same compound, the “BL2/BL1, Rx/Cont” value (living monkey eye) was 1.12 ± 0.15, the “Baseline facility BL2, Rx eye” value (living monkey eye) was 0.42 ± 0.06 μl/min/mmHg and the “Baseline facility BL2, Rx/Cont” value (living monkey eye) was 1.07 ± 0.17. For the same compound, the effect on facility (living monkey eye) was “probably ineffective”, the “reversibility of the facility-effect” value (living monkey eye) was “minimal” and the “facility increase, control (non-disinserted) eyes” value ([4]; Lat-A 5.0 μM) was 328±35%. The “Facility PRx, CM Dis eye” value ([4]; Lat-A 5.0 μM OU, n=9) was 0.65 ± 0.23 μl/min/mmHg, the “Facility PRx, CM Dis/Cont” value ([4]; Lat-A 5.0 μM OU, n=9) was 0.43 ± 0.15 and the “Facility PRx, Cont (non-disinserted, drug-treated) eye” value ([4]; Lat-A 5.0 μM OU, n=9) was 1.51 ± 0.30 μl/min/mmHg. For the same compound, the “PRx/BL, CM Dis eye” value ([4]; Lat-A 5.0 μM OU, n=9) was 4.53 ± 1.29, the “PRx/BL, CM Dis/Cont” value ([4]; Lat-A 5.0 μM OU, n=9) was 1.06 ± 0.27 and the “PRx/BL, Cont (non-disinserted, drug-treated) eye” value ([4]; Lat-A 5.0 μM OU, n=9) was 4.28 ± 0.35. The “facility increase, ciliary muscle-disinserted eyes” value ([4]; Lat-A 5.0 μM, n=9) was 353±129%.
